Results: patent US10759835B2, “Monomeric streptavidin mutants, methods of using the same and processes of manufacturing proteins” (The Research Foundation for The State University of New York, priority 2016, dated 2020)

Assay: Fluorescence polarization spectroscopy, biotin dissociation rate (koff)
Format: binding
Details: 37° C.
Protocol: FIG. 4. In vitro characterization of purified mSA mutants. a) Stability of mSA-RF and mSA-RWT in PBS was measured by circular dichroism spectroscopy with or without biotin. b) Fluorescence polarization spectroscopy was used to measure the dissociation rate of biotin-fluorescein. The dissociation rate, koff, was computed by fitting normalized fluorescence polarization data, or bound fraction f, to an exponentially decaying function, i.e. ƒ=e^−k^off^*t The measurements were taken at 37° C. c) The equilibrium affinity of binding Kd between mSA-RF and biotin-fluorescein was measured by FP. d) mSA-S25H and mSA-RF were analyzed by size exclusion chromatography to estimate their molecular weights in solution. […]
The binding of biotinylated fluorescein (bf, AnaSpec) was measured using a microplate reader (SpectraMax® i3 Microplate reader from Molecular Devices) in flat bottom 96 well plates (Sterilin Ltd). […] After overnight incubation at room temperature, the fluorescence polarization values were measured and fit to the quadratic binding equation (Hsu and Park, 2010, J Mol Graph Model, 29, 295-308). […] To observe dissociation of bf, excess free biotin was added to a final concentration of 100 μM and recording of fluorescence was started immediately. The intensity of polarized fluorescence was measured at various time points and normalized with respect to the value at t=0 min. […]

With “Wt SA: wild type streptavidin, tetrameric, SEQ ID NO: 20 [reference compound]” the “t1/2” value (dissociation half-life t1/2=0.693/koff, biotin-fluorescein) was 751 ± 261 min and the “Koff(×10^−3 min^−1)” value (dissociation of biotin-fluorescein, excess free biotin 100 μM) was 0.923 ± 0.0253 ×10^−3 min^−1.
